Experimental data from ChEMBL document CHEMBL5257116, “Design, synthesis, and biological evaluation of acyl sulfonamide derivatives with spiro cycles as NaV1.7 inhibitors for antinociception” (Bioorg Med Chem, 2023).
Activity calls are given as the source filed them. The calls are words filed in the database; no cut-off is given here.

Columns and labels:
[1] = tested on: Mus musculus; experiment: Antinociceptive activity in Kunming mouse at 10 mg/kg,ip measured for 1 to 4 hrs after administration by hot plate test; type: functional, organism-based; conditions: time 1-4 hrs
[2] = tested on: Mus musculus; experiment: Antinociceptive activity in Kunming mouse at 40 mg/kg,ip measured for 1 to 4 hrs after administration by hot plate test; type: functional, organism-based; conditions: time 1-4 hrs
[3] = biological target: Sodium channel protein type 4 subunit alpha (Homo sapiens, UniProt P35499); experiment: Inhibition of Nav1.4 (unknown origin) by whole-cell patch clamp assay
[4] = biological target: Sodium channel protein type 5 subunit alpha (Homo sapiens, UniProt Q14524); experiment: Inhibition of Nav1.5 (unknown origin) by whole-cell patch clamp assay
Sequence of Sodium channel protein type 5 subunit alpha (Q14524 whole entry): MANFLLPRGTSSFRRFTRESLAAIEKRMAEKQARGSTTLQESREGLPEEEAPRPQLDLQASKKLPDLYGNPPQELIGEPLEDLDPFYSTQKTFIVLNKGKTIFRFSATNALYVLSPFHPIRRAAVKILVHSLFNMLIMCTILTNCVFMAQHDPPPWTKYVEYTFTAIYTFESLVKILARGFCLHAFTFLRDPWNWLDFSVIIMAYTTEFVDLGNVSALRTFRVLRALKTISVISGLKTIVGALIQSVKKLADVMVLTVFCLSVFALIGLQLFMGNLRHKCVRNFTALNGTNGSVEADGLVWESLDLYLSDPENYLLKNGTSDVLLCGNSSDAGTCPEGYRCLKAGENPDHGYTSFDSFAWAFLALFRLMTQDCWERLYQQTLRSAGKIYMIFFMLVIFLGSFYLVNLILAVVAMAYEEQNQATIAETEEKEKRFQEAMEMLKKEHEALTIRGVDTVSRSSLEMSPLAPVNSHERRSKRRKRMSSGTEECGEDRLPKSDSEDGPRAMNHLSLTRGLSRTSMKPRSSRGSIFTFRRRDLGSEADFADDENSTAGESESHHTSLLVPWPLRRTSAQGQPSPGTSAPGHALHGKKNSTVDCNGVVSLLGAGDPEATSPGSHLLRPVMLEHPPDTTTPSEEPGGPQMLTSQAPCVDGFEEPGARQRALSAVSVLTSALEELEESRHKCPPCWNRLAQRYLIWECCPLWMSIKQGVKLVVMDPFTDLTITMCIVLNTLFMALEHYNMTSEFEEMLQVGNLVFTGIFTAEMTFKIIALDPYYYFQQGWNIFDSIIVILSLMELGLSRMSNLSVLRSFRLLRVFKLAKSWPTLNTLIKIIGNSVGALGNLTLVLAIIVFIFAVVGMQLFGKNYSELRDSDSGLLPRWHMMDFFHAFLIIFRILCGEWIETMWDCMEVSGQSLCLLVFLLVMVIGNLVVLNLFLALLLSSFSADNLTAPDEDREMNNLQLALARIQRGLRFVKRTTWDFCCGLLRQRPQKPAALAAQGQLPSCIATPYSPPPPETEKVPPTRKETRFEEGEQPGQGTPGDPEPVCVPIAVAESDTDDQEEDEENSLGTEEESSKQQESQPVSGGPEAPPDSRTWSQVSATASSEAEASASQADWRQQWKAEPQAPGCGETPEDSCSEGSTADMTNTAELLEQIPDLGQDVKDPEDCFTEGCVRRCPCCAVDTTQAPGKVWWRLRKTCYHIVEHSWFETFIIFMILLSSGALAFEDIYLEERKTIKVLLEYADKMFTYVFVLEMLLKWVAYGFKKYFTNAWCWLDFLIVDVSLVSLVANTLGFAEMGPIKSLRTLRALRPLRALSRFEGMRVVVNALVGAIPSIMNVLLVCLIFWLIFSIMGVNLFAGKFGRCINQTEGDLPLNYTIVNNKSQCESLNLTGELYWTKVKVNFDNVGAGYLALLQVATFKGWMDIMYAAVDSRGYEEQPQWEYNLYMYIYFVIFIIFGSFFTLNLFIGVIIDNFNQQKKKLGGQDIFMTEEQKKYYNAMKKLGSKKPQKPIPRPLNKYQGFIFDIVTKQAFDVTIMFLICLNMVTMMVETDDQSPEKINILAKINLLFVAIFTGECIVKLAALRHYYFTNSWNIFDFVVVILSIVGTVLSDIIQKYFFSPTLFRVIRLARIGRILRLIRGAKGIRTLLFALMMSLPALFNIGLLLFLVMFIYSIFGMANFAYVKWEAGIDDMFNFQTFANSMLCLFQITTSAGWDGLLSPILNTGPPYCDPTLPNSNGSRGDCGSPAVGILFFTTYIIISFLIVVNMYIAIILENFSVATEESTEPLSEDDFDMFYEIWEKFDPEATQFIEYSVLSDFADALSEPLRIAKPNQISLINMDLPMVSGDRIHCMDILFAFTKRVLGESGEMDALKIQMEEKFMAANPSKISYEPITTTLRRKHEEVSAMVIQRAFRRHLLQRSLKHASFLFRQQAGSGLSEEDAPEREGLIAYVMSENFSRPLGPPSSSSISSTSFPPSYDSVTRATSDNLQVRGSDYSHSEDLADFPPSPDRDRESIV

[5] = species on record: Homo sapiens; experiment: Selectivity ratio of IC50 for inhibition of Nav1.7 (unknown origin) to IC50 for inhibition of Nav1.4 (unknown origin)
[6] = tested on: Mus musculus; experiment: Antinociceptive activity in Kunming mouse assessed as inhibition of acetic acid-induced abdominal constrictions at 10 to 40 mg/kg,ip pre-administrated for 2 hrs followed by acetic acid induction and measured for 15 mins by writhing test; type: functional, organism-based; conditions: dose 10-40 mg/kg, time 135.0 min
[7] = Sedative activity in Kunming mouse assessed as effect on spontaneous locomotor activity at 20 mg/kg,ip administrated for 2 hrs and measured for 30 mins by open field test; type: toxicity, organism-based; conditions: in vivo, 2.5 h
[8] = biological target: T1, Sodium channel protein type 9 subunit alpha (Homo sapiens, UniProt Q15858); experiment: Inhibition of human Nav1.7 expressed in HEK293 cells at 1 uM measured for 48 hrs by whole-cell patch clamp electrophysiology assay; type: cell-based
Target sequence in this assay (Q15858 whole entry, looked up): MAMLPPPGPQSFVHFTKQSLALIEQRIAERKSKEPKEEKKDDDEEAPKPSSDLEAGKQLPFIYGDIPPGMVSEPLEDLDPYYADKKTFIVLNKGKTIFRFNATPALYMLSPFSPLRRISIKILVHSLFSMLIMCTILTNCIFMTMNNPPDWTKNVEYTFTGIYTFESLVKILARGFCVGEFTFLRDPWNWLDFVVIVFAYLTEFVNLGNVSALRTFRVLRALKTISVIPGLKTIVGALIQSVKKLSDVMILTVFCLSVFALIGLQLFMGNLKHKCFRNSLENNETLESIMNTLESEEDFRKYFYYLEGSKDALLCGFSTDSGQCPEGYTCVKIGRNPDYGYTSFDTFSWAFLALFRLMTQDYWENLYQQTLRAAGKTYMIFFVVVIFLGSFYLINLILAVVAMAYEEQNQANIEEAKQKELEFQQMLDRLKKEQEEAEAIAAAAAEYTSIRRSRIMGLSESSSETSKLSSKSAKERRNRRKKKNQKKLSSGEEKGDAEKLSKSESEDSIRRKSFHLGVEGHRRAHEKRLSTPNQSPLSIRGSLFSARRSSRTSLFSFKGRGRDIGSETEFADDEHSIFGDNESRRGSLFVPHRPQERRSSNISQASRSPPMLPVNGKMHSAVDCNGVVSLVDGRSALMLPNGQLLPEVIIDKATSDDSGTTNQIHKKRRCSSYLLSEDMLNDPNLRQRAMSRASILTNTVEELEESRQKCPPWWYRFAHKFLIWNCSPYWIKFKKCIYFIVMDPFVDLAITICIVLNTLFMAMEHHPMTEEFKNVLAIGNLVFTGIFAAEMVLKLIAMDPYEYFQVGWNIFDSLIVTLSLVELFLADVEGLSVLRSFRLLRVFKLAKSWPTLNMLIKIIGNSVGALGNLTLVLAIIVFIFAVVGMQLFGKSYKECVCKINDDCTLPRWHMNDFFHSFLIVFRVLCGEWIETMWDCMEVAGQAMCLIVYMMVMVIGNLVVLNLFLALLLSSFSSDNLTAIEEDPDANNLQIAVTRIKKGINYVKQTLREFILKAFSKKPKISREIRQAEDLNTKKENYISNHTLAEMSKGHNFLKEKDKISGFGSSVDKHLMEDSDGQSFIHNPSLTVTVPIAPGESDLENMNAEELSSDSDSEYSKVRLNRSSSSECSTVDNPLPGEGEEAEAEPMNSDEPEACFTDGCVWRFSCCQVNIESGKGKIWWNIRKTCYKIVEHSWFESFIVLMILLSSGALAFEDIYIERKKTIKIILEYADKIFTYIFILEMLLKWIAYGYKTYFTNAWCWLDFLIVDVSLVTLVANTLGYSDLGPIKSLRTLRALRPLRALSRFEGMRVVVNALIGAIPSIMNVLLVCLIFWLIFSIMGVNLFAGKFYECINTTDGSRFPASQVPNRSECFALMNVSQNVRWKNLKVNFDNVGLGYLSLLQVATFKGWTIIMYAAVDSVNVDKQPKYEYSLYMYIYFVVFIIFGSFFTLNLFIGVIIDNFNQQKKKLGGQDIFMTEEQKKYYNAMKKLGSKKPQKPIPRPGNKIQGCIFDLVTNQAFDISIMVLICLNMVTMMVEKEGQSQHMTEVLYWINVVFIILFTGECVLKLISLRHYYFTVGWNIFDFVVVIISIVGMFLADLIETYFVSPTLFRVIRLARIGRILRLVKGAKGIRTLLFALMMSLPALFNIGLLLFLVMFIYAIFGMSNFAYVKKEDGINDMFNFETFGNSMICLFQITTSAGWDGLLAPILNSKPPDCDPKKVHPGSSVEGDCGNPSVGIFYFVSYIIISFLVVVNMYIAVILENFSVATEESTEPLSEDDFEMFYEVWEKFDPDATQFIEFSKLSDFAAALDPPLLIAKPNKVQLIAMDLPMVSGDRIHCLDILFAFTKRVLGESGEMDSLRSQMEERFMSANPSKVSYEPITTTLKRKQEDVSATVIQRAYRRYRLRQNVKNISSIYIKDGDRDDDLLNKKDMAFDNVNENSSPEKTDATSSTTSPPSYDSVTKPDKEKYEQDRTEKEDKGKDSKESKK

[9] = biological target: T1, Sodium channel protein type 9 subunit alpha; experiment: Inhibition of Nav1.7 (unknown origin) by whole-cell patch clamp assay
Target sequence in this assay (Q15858 whole entry): as the sequence (Q15858 whole entry, looked up) above

[10] = biological target: T1, Sodium channel protein type 9 subunit alpha; experiment: Inhibition of human Nav1.7 expressed in HEK293 cells at 10 uM measured for 48 hrs by whole-cell patch clamp electrophysiology assay; type: cell-based
Target sequence in this assay (Q15858 whole entry, looked up): as above

[11] = tested on: Mus musculus; experiment: Antinociceptive activity in Kunming mouse at 20 mg/kg,ip measured for 1 to 4 hrs after administration by hot plate test; type: functional, organism-based; conditions: time 1-4 hrs

Compound | inhibition [8] [%] | inhibition [10] [%] | also measured
O=C(NS(=O)(=O)C1CC1)c1ccc(OC2CCC3(CCN(Cc4ccccc4)CC3)C2)cc1 (stereo not given) |  | 45.7 | 
CCN1CCC2(CCC(Oc3ccc(C(=O)NS(=O)(=O)C4CC4)cc3)C2)CC1 (stereo not given) |  | 16.8 | 
O=C(NS(=O)(=O)C1CC1)c1cc(Cl)c(OCCC2CCC3(CCN(CCCc4ccccc4)CC3)C2)cc1F (stereo not given) | 21.2 | 72.8 | 
CCN1CCC2(CC1)CC(Oc1ccc(C(=O)NS(=O)(=O)C3CC3)cc1)C2 |  | 14.3 | 
O=C(NS(=O)(=O)C1CC1)c1ccc(OCC2CCC3(CCNCC3)C2)cc1 (stereo not given) |  | 0.2 | 
O=C(NS(=O)(=O)C1CC1)c1ccc(OC2CCC3(CCNCC3)C2)cc1 (stereo not given) |  | 71.4 | 
O=C(NS(=O)(=O)C1CC1)c1ccc(OC2CCC3(CC2)CCN(Cc2ccccc2)CC3)cc1 |  | 13.7 | 
O=C(NS(=O)(=O)C1CC1)c1cc(Cl)c(OCCC2CCC3(CCN(Cc4cccc5ccccc45)CC3)C2)cc1F (stereo not given) | 33.5 | 97.1 | 
C[C@H](NCc1ccc(OCc2ccccc2F)cc1)C(N)=O [RALFINAMIDE] | 12.5 | 30.9 | IC50 [9]: 35200 nM; Activity [11]: Active
O=C(NS(=O)(=O)C1CC1)c1ccc(OCC2CCC3(CCN(Cc4ccccc4)CC3)C2)cc1 (stereo not given) |  | 57.4 | 
O=C(NS(=O)(=O)C1CC1)c1ccc(OCCC2CCC3(CCNCC3)C2)cc1 (stereo not given) |  | 8.4 | 
CCN1CCC2(CCC(CCOc3ccc(C(=O)NS(=O)(=O)C4CC4)cc3)C2)CC1 (stereo not given) |  | 24.2 | 
O=C(NS(=O)(=O)C1CC1)c1ccc(OC2CCC3(CCNCC3)CC2)cc1 |  | 11.2 | 
O=C(NS(=O)(=O)C1CC1)c1cc(C2CC2)c(OCCC2CCC3(CCN(Cc4ccccc4)CC3)C2)cc1F (stereo not given) |  | 96.5 | 
O=C(NS(=O)(=O)C1CC1)c1cc(Cl)c(OCCC2(F)CCN(Cc3cc(Cl)cc(Cl)c3)CC2)cc1F |  | 89.6 | IC50 [3]: 2.7 µM; IC50 [4]: 58.9 µM; Ratio IC50 [5]: 3; IC50 [9]: 1010 nM
O=C(NS(=O)(=O)C1CC1)c1cc(Cl)c(OCCC2CCC3(CCN(Cc4cccc(C(F)(F)F)c4)CC3)C2)cc1F (stereo not given) | 16.1 | 55.9 | 
CCN1CCC2(CCC(Oc3ccc(C(=O)NS(=O)(=O)C4CC4)cc3)CC2)CC1 |  | 22.9 | 
O=C(NS(=O)(=O)C1CC1)c1ccc(OC2CC3(CCNCC3)C2)cc1 |  | 15.4 | 
O=C(NS(=O)(=O)C1CC1)c1ccc(OCCC2CCC3(CCN(Cc4ccccc4)CC3)C2)cc1 (stereo not given) |  | 92 | 
Cc1cc(C(=O)NS(=O)(=O)C2CC2)c(F)cc1OCCC1CCC2(CCN(Cc3ccccc3)CC2)C1 (stereo not given) |  | 101 | IC50 [9]: 1040 nM
O=C(NS(=O)(=O)C1CC1)c1ccc(OC2CC3(CCN(Cc4ccccc4)CC3)C2)cc1 |  | 21.5 | 
O=C(NS(=O)(=O)C1CC1)c1cc(F)c(OCCC2CCC3(CCN(Cc4ccccc4)CC3)C2)cc1F (stereo not given) |  | 99.7 | IC50 [9]: 1150 nM
CCN1CCC2(CCC(COc3ccc(C(=O)NS(=O)(=O)C4CC4)cc3)C2)CC1 (stereo not given) |  | 1.4 | 

Second part, led by results:

inhibition [8] [%] | inhibition [10] [%] | Compound | also measured
70.8 | 102 | O=C(NS(=O)(=O)C1CC1)c1cc(Cl)c(OCCC2CCC3(CCN(Cc4ccccc4)CC3)C2)cc1F (stereo not given) | Activity [1]: inactive; Activity [2]: inactive; IC50 [3]: 4.88 µM; IC50 [4]: 46.2 µM; Ratio IC50 [5]: 10; Activity [6]: Dose-Dependent Effect; Activity [7]: Non-Toxic; IC50 [9]: 460 nM; Activity [11]: Active
27.5 | 75.1 | O=C(NS(=O)(=O)C1CC1)c1cc(Cl)c(OCCC2CCC3(CCN(CCc4ccccc4)CC3)C2)cc1F (stereo not given) | 
31.1 | 89.3 | COc1ccc(CN2CCC3(CCC(CCOc4cc(F)c(C(=O)NS(=O)(=O)C5CC5)cc4Cl)C3)CC2)cc1 (stereo not given) | 
 | 77.2 | O=C(NS(=O)(=O)C1CC1)c1cc(Cl)c(OCCC2CCC3(CCN(Cc4cc(Cl)cc(Cl)c4)CC3)C2)cc1F (stereo not given) | 
61.4 | 95.9 | O=C(NS(=O)(=O)C1CC1)c1cc(Cl)c(OCCC2CCC3(CCN(Cc4ccsc4)CC3)C2)cc1F (stereo not given) | IC50 [4]: 54.7 µM; IC50 [9]: 840 nM
20.1 | 65.5 | O=C(NS(=O)(=O)C1CC1)c1cc(Cl)c(OCCC2CCC3(CCN(CC4CCCCC4)CC3)C2)cc1F (stereo not given) | 
29.4 | 93.9 | CCc1ccc(CN2CCC3(CCC(CCOc4cc(F)c(C(=O)NS(=O)(=O)C5CC5)cc4Cl)C3)CC2)cc1 (stereo not given) | 
 | 24.3 | CCN1CCC2(CCC(CCOc3cc(F)c(C(=O)NS(=O)(=O)C4CC4)cc3Cl)C2)CC1 (stereo not given) | 
60 | 97.6 | O=C(NS(=O)(=O)C1CC1)c1cc(Cl)c(OCCC2CCC3(CCN(Cc4ccco4)CC3)C2)cc1F (stereo not given) | IC50 [9]: 610 nM
23.8 | 87.2 | O=C(NS(=O)(=O)C1CC1)c1cc(Cl)c(OCCC2CCC3(CCN(Cc4ccc(Cl)cc4)CC3)C2)cc1F (stereo not given) | 
